Source: PubChem BioAssay AID330 (DTP/NCI, 2004)
Toxic doses and inconclusive results are not listed.

Tested on: P388 leukemia ip, CD2F1 mice, survival T/C
Test: NCI In Vivo Anticancer Drug Screen. Data for tumor model P388 Leukemia (intraperitoneal) in CD2F1 (CDF1) mice
Conditions: endpoint: median survival time, higher = longer survival
Summary of the method: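 Mice carrying the transplanted tumor received test compound or vehicle. Survival was recorded in each group, and the value is the treated-group measurement divided by that of the vehicle-treated control group.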

[1] = dose: 50.0 mg/kg/injection, schedule: Q01DX005 (ip), vehicle: saline with Tween-80
[2] = dose: 100.0 mg/kg/injection, schedule: Q01DX005 (ip), vehicle: saline with Tween-80
[3] = dose: 50.0 mg/kg/injection, schedule: Q01DX009 (ip), vehicle: saline with Tween-80
[4] = dose: 100.0 mg/kg/injection, schedule: Q01DX009 (ip), vehicle: saline with Tween-80
[5] = dose: 200.0 mg/kg/injection, schedule: Q01DX009 (ip), vehicle: saline with Tween-80

Q: What does the source list for `CCCCCC(=O)c1c(-c2ccc(C)cc2)cc(O)c(CCCC)c1-c1ccc(C)cc1`?
A: T/C (dose: 25.0 mg/kg/injection, schedule: Q01DX005 (ip), vehicle: saline with Tween-80): 108 % of control; T/C [1]: 97 % of control; T/C [2]: 104 % of control

Q: How did the T/C (dose: 100.0 mg/kg/injection, schedule: Q01DX001 (ip), vehicle: saline with Tween-80) turn out when `CCCCC(CC)OC(=O)c1cccc(C(=O)O)c1` (centres undefined) was run?
A: 115 % of control

Q: What about the T/C (dose: 200.0 mg/kg/injection, schedule: Q01DX001 (ip), vehicle: saline with Tween-80) of the same molecule?
A: 97 % of control

Q: With `CC(C)(C#CC(C)(C)OC(=O)Nc1ccccc1)OC(=O)Nc1ccccc1` as the molecule, how does the T/C (dose: 100.0 mg/kg/injection, schedule: Q01DX009 (ip), vehicle: suspension in saline) read?
A: 95 % of control

Q: And the T/C (dose: 200.0 mg/kg/injection, schedule: Q01DX009 (ip), vehicle: suspension in saline)?
A: 97 % of control

Q: What about the T/C (dose: 400.0 mg/kg/injection, schedule: Q01DX009 (ip), vehicle: suspension in saline) of the same molecule?
A: 107 % of control

Q: What does the source list for `CCCCCOc1cc2c(cc1C(C)c1ccc(OC)cc1)OCO2` (centres undefined)?
A: T/C (dose: 50.0 mg/kg/injection, schedule: Q01DX005 (ip), vehicle: Klucel (hydroxypropylcellulose) (HPC)): 107 % of control; T/C (dose: 100.0 mg/kg/injection, schedule: Q01DX005 (ip), vehicle: Klucel (hydroxypropylcellulose) (HPC)): 103 % of control; T/C (dose: 200.0 mg/kg/injection, schedule: Q01DX005 (ip), vehicle: Klucel (hydroxypropylcellulose) (HPC)): 98 % of control

Q: For `COC(=O)[C@@]12OC[C@]34[C@H]([C@@H](O)[C@@H]1O)[C@@]1(C)CC(=O)C(OC(=O)CC(=O)OC5=C(C)[C@@H]6C[C@H]7OC(=O)[C@H](OC(=O)/C=C(\C)C(C)C)[C@H]8[C@]9(C(=O)OC)OC[C@]78[C@H]([C@@H](O)[C@@H]9O)[C@@]6(C)CC5=O)=C(C)[C@@H]1C[C@H]3OC(=O)[C@H](OC(=O)/C=C(\C)C(C)C)[C@@H]24`, which T/C (dose: 0.19 mg/kg/injection, schedule: Q01DX009 (ip), vehicle: saline + Tween-80 + alcohol) is on record?
A: 121 % of control

Q: What about the T/C (dose: 0.37 mg/kg/injection, schedule: Q01DX005 (ip), vehicle: saline + Tween-80 + alcohol) of the same molecule?
A: 119 % of control

Q: And the T/C (dose: 0.38 mg/kg/injection, schedule: Q01DX005 (ip), vehicle: saline + Tween-80 + alcohol)?
A: 110 % of control

Q: What about the T/C (dose: 0.38 mg/kg/injection, schedule: Q01DX009 (ip), vehicle: saline + Tween-80 + alcohol) of the same molecule?
A: 120 % of control

Q: What about the T/C (dose: 0.75 mg/kg/injection, schedule: Q01DX005 (ip), vehicle: saline + Tween-80 + alcohol) of the same molecule?
A: 114 % of control

Q: And the T/C (dose: 0.75 mg/kg/injection, schedule: Q01DX009 (ip), vehicle: saline + Tween-80 + alcohol)?
A: 124 % of control

Q: And the T/C (dose: 1.5 mg/kg/injection, schedule: Q01DX009 (ip), vehicle: saline + Tween-80 + alcohol)?
A: 165 % of control

Q: What about the T/C (dose: 3.0 mg/kg/injection, schedule: Q01DX009 (ip), vehicle: saline + Tween-80 + alcohol) of the same molecule?
A: 163 % of control

Q: With `Cc1cc([N+](=O)[O-])ccc1N=Nc1ccc(O)c(C(=O)O)c1` as the molecule, how does the T/C [1] read?
A: 105 % of control

Q: And the T/C [2]?
A: 95 % of control

Q: `CN(C)C(=O)Oc1ccc(Br)cc1` was tested. Which T/C [3] did it give?
A: 101 % of control

Q: And the T/C [4]?
A: 94 % of control

Q: What about the T/C [5] of the same molecule?
A: 103 % of control

Q: What does the source list for `COC(=O)C(Cl)c1ccc2c(c1)OCO2` (centres undefined)?
A: T/C (dose: 25.0 mg/kg/injection, schedule: Q01DX009 (ip), vehicle: saline with Tween-80): 100 % of control; T/C [3]: 90 % of control; T/C [4]: 95 % of control

Q: How did the T/C (dose: 60.0 mg/kg/injection, schedule: Q01DX005 (ip), vehicle: saline with Tween-80) turn out when `CCOC(=O)c1cnc2ccccc2c1N=[N+]=[N-]` was run?
A: 94 % of control

Q: And the T/C (dose: 120.0 mg/kg/injection, schedule: Q01DX005 (ip), vehicle: saline with Tween-80)?
A: 99 % of control

Q: And the T/C (dose: 240.0 mg/kg/injection, schedule: Q01DX005 (ip), vehicle: saline with Tween-80)?
A: 103 % of control

Q: Which results are given for `CC1=CC(=O)C(O)C2(C)C1CC1OC(=O)C(OC(=O)CC(C)(C)O)C3C(C)C(O)C4(O)OCC13C42` (centres undefined)?
A: T/C (dose: 0.5 mg/kg/injection, schedule: Q01DX009 (ip), vehicle: saline + alcohol): 115 % of control; T/C (dose: 1.0 mg/kg/injection, schedule: Q01DX009 (ip), vehicle: saline + alcohol): 118 % of control; T/C (dose: 2.0 mg/kg/injection, schedule: Q01DX009 (ip), vehicle: saline + alcohol): 119 % of control; T/C (dose: 8.0 mg/kg/injection, schedule: Q01DX009 (ip), vehicle: saline + alcohol): 118 % of control

Q: What does the source list for `COc1ccc2c(=O)c(-c3ccc(OC)c(OC)c3OCc3ccccc3)coc2c1`?
A: T/C (dose: 100.0 mg/kg/injection, schedule: Q01DX001 (ip), vehicle: Klucel (hydroxypropylcellulose) (HPC)): 92 % of control; T/C (dose: 200.0 mg/kg/injection, schedule: Q01DX001 (ip), vehicle: Klucel (hydroxypropylcellulose) (HPC)): 96 % of control; T/C (dose: 400.0 mg/kg/injection, schedule: Q01DX001 (ip), vehicle: Klucel (hydroxypropylcellulose) (HPC)): 94 % of control

Q: Which results are given for `Oc1c(CN2CCCC2)cc(Nc2nccc(/C=C/c3ccc(Cl)cc3)n2)cc1CN1CCCC1`?
A: T/C (dose: 6.25 mg/kg/injection, schedule: Q01DX009 (ip), vehicle: saline): 106 % of control; T/C (dose: 12.5 mg/kg/injection, schedule: Q01DX009 (ip), vehicle: saline): 106 % of control; T/C (dose: 25.0 mg/kg/injection, schedule: Q01DX009 (ip), vehicle: saline): 110 % of control; T/C (dose: 50.0 mg/kg/injection, schedule: Q01DX009 (ip), vehicle: saline): 114 % of control

Q: Which results are given for `CS(=O)C/C(=C/CCCl)c1ccc(F)cc1` (centres undefined)?
A: T/C [3]: 101 % of control; T/C [4]: 105 % of control; T/C [5]: 96 % of control
